Measurements published in US10966999B2, “3′3′ cyclic dinucleotides with phosphonate bond activating the sting adaptor protein” (INSTITUTE OF ORGANIC CHEMISTRY AND BIOCHEMISTRY ASCR, V.V.I., priority 2017, dated 2021).

Assays:
[1] = biological target: T1, WT STING (Homo sapiens, UniProt Q86WV6, H232R); assay: Differential Scanning Fluorimetry (DSF) with WT STING; format: binding; details: thermal shift vs STING apoprotein; 150 μM CDN; 0.1 mg/ml protein; SYPRO Orange
T1 construct: encoded truncated human WT STING or AQ STING (amino acid residues 140-343) with N-terminal 8×His and SUMO tag; 8xHis-SUMO (N, cleaved yes); made in house; host or cells: E. coli Rosetta-gami B (DE3)
T1 sequence (Q86WV6 140-343 H232R): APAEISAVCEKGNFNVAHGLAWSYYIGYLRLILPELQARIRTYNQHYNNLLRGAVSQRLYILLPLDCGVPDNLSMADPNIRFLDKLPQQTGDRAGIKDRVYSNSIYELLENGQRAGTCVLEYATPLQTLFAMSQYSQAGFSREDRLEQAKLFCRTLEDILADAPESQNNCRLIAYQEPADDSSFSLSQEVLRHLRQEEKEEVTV
Procedure: (§1) WT STING and AQ STING Proteins
(§2) Purified PCR products were cleaved with restriction enzymes BamHI (cat. #R0136S, NEB, Ipswich, USA) and NotI (cat. #R0189S, NEB, Ipswich, USA) and cloned into the pSUMO vector linearized with the identical enzymes.
(§3) DNase I (cat. #D5025, Sigma Aldrich, Czech Republic) and RNase A (cat. #R6513, Sigma Aldrich, Czech Republic) were added (final concentration 50 μg/ml) together with MgCl2 (final concentration 5 mmol·l^−1) to the homogenate and bacteria were lysed using French Press G-M™ High-Pressure Cell Press Homogenizer (1500 psi, 3 cycles). […] The resin was poured into a chromatography column, washed with 50 ml buffer A (50 mmol·l^−1 TrisCl (pH 8.0), 800 mmol·l^−1 NaCl, 3 mmol·l^−1 3-mercaptol; 10% glycerol; 20 mmol·l^−1 imidazole) and 8-His-SUMO tagged STING proteins were eluted with 15 ml buffer A containing 300 mmol·l^−1 imidazole. […] Proteins were concentrated with Amicon® Ultra-15 10 K device (cat. #UFC901008, Merck Millipore, Billerica, USA) and flash frozen in liquid N2.
(§4) Differential Scanning Fluorimetry (DSF) with WT STING and AQ STING
(§5) 20 μL solutions of the reaction mixtures were pipetted in triplicates into 96 well optical reaction plates and thermal denaturation of samples were performed on real time PCR cycler (LightCycler R 480 Instrument II—Roche, Basel, Switzerland). The first derivative of the thermal denaturation curves was performed to calculate denaturing temperatures of STING-CDN complexes and STING apoproteins. The thermal shift for each CDN was calculated by subtracting the average denaturing temperature of STING apoprotein from the average denaturing temperature of STING CDN complex.

[2] = biological target: T2, human wild type STING (WT STING) (Homo sapiens, UniProt Q86WV6, H232R); assay: Digitonin assay using 293T wtSTING-FL reporter cells; format: cell-based; details: 293T wtSTING-FL cells; ISRE firefly luciferase reporter; 30 min in Digitonin buffer, then 5 hours; 8-point dose-response curve
T2 construct: host or cells: 293T (ATCC CRL-3216), stably transfected, with a 4xISRE firefly luciferase reporter
T2 sequence (Q86WV6 whole entry H232R): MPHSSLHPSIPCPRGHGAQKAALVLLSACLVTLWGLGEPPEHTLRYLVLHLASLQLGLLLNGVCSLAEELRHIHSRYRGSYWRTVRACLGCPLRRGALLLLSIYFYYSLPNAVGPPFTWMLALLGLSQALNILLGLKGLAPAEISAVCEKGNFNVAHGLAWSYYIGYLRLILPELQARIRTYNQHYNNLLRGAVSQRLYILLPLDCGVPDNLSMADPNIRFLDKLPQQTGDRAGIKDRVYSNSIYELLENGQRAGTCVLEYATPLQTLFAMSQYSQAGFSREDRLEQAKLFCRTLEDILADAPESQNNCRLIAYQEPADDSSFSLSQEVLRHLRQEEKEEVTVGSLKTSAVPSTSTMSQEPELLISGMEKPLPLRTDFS
Source text: ISRE Reporter Plasmid (pGL64.27-4×ISRE)
Two complementary oligonucleotides of the sequence […] […] […] […] […] The oligonucleotides were mixed in equal molar amounts, hybridized, and cleaved by restriction endonucleases HindIII (cat. #. R0104S, NEB, Ipswich, USA) and BglII (cat. #R0144S, NEB, Ipswich, USA). Ultimately, they were ligated into plasmid pGL4.27 (cat. #E6651, Promega, Madison, USA) linearized with the same enzymes. As result the sequence with four ISRE sites was placed upstream of the minimum promoter of firefly luciferase reporter gene.
After 5 minutes incubation at room temperature (RT), 250 μL of the mixture was added dropwise to the cells in one well. Cells were incubated 36 hours at 37° C. with 5% CO2, and then detached with 0.05% Trypsin and 0.22 g/L EDTA (both cat. #L0941, Biowest, Riverside, USA).
Transfected cells were seeded onto poly-D-lysine coated six well plates at density 50,000 cells per 1 cm^2 in DMEM medium with high glucose containing 10% heat inactivated FBS, 30 μg/mL blasticidin (cat. #ant-bl-05, InvivoGen, San Diego, USA), 0.06 mg/ml Penicillin G and 0.1 mg/ml Streptomycin Sulfate (both cat. #. L0018, Biowest, Riverside, USA). The medium was replenished every 3-4 days until visible colonies of cells resistant to blasticidin were formed.
Blasticidin resistant cells stably expressing WT STING were further transfected with pGL64.27-4×ISRE plasmid following the same procedure as described above. […] Homogeneous culture of stably double transfected cells was prepared by limiting dilution of cells in 96 well plates and wells with cells were selected that originated from a single cell.
The medium was removed next day and three fold serial dilutions of compounds in Digitonin buffer containing 50 mmol·l^−1 HEPES (cat. #H3375, Sigma Aldrich, Czech Republic) pH 7.0, 100 mmol·l^−1 KCl, 3 mmol·l^−1 MgCl2, 0.1 mmol·l^−1 DTT (cat. #D0632, Sigma Aldrich, Czech Republic), 85 mmol·l^−1 Sucrose (cat. #S7903, Sigma Aldrich, Czech Republic), 0.2% BSA (cat. #A2153, Sigma Aldrich, Czech Republic), 1 mmol·l^−1 ATP (cat. #A1852, Sigma Aldrich, Czech Republic), 0.1 mmol·l^−1 GTP (cat. #G8877, Sigma Aldrich, Czech Republic), and 10 μg/mL Digitonin A (cat. #D141, Sigma Aldrich, Czech Republic) were added to the cells. The buffer was removed after 30 minutes incubation at 37° C. with 5% CO2, the cells were washed once with 100 μl of cultivation medium, and 100 μl of medium was added to each well. The plates with cells were incubated for 5 hours at 37° C. with 5% CO2, 50 μl of the medium was removed and 30 μl of ONE-Glo™ Luciferase Assay System reagent (cat. #E6120, Promega, Madison, USA) was added to each well. Luminescence was read on Synergy H1 (Biotek, Winooski, USA).

[3] = biological target: T3, AQ STING (G230A-R293Q) (Homo sapiens, UniProt Q86WV6, G230A/H232R/R293Q); assay: Differential Scanning Fluorimetry (DSF) with AQ STING; format: binding; details: thermal shift vs STING apoprotein; 150 μM CDN; 0.1 mg/ml protein; SYPRO Orange
T3 construct: encoded truncated human WT STING or AQ STING (amino acid residues 140-343) with N-terminal 8×His and SUMO tag; 8xHis-SUMO (N, cleaved yes); made in house; host or cells: E. coli Rosetta-gami B (DE3)
T3 sequence (Q86WV6 140-343 G230A/H232R/R293Q): as the sequence (Q86WV6 140-343 H232R) above, with G91A, R154Q counted along it
Procedure: as §1, §2, §3, §4, §5

Row | ΔTm at 150 µM [1] [°C] | EC50 [2] [nM] | ΔTm at 150 µM [3] [°C] | DSF ΔTm WT STING [1] [°C] | DSF ΔTm AQ STING [3] [°C] | Compound
1 | 1.9 | 200 | 9.5 | – | – | Nc1nc2c(ncn2[C@@H]2O[C@@H]3OCP(=O)(O)OC4C(O)[C@H](n5cnc6c(N)ncnc65)O[C@@H]4OCP(=O)(O)OC3C2O)c(=O)[nH]1 (stereo partly drawn) [Compound 38]
2 | 0.6 | 8100 | 5.6 | – | – | Nc1nc2c(ncn2[C@@H]2O[C@@H]3OCP(=O)(O)OC4C(O)[C@H](n5cnc6c(=O)[nH]c(N)nc65)O[C@@H]4OCP(=O)(O)OC3C2O)c(=O)[nH]1 (stereo partly drawn) [Compound 36]
3 | 0.8 | 1200 | 6.4 | – | – | Nc1ncnc2c1ncn2[C@@H]1O[C@@H]2OCP(=O)(O)OC3C(O)[C@H](n4cnc5c(N)ncnc54)O[C@@H]3COP(=O)(O)OC2C1O (single isomer, unassigned) [Compound 32]
4 | – | 30 | – | 11.5 | 19.4 | Nc1nc2c(ncn2[C@@H]2O[C@@H]3COP(=O)(O)O[C@@H]4[C@H](O)[C@@H](COP(=O)(O)O[C@@H]2[C@@H]3O)O[C@H]4n2cnc3c(N)ncnc32)c(=O)[nH]1 [2′2′-cGAMP, reference compound]
5 | 3 | 900 | 8.8 | – | – | Nc1ncnc2c1ncn2[C@@H]1O[C@@H]2OCP(=O)(O)OC3C(F)[C@H](n4cnc5c(N)nc(F)nc54)O[C@@H]3COP(=O)(O)OC2C1O (stereo partly drawn) [Compound 53]
